Reference: patent US5525595A, “3- or 4-glycosyloxybenzopyran derivative and antiallergic agent containing the derivative as active ingredient” (priority 1993, dated 1996)

What was measured:
[1] = tested on: airway resistance in experimental asthma model; assay: Effect on experimental asthma model in guinea pigs; assay type: in vivo, guinea pigs (Male hadley); conditions: Cavia porcellus; 100 mg/kg oral, OVA challenge, guinea pigs; Table 7
Method: The asthma is typical allergic disease and we carried out this pharmacological test by well known experimental asthma model in guinea pigs in order to confirm that the compounds of the present invention suppress the asthma. In the following, the method of the pharmacological test will be explained.
Method: Male hadley guinea pigs were immunized by intraperitoneal injection of saline (1 ml) containing 5 mg of ovalbumine (OVA) three times at interval of one week. 2 weeks after final immunization, the animals were challenged by inhalation of 1% OVA-saline solution for 1 minute and then the airway resistance of the animals were measured for 30 minutes with PULMOS-1 (Medical Interface Project Station Inc.) after the inhalation. The compounds of the present invention (test compounds) suspended in 0.5% CMCNa were given orally at a dose of 100 mg/kg. As positive control group, Disodium Cromoglicate (DSCG), well known anti-allergic agent, in saline were injected at a dose of 20 mg/kg into the vein of the animals. As vehicle control group, only 0.5% CMCNa solution were given orally. The inhibition (%) of the airway resistance in vehicle control group was calculated according to equation 5 and the result was shown in Table 7. Each experimental group consisted of 5 guinea pigs. [formula] In equation 5: A: Maximum airway resistance in vehicle control group
B: Maximum airway resistance in test compounds group or positive control group

[2] = tested on: homologous passive cutaneous anaphylaxis (PCA) reaction; assay: Effect on homologous passive cutaneous anaphylaxis (PCA) reaction in rats; assay type: in vivo, rats (Male wistar rats); conditions: Rattus norvegicus, 0.5 h; 100 mg/kg oral, 1 hour before antigen, rats; Table 3
Method: This experimental animal model is caused by immediate type allergic reaction, namely, antigen-antibody reaction. In the following, the method of this pharmacological test will be explained.
Method: Male wistar rats (9 weeks old) were intradermally administered 0.05 ml of anti-serum against trinitrophenylated ascaris (TNP-As) into two sites on the shaved dorsal skin. 48 hours later, 3-glycosyloxybenzopyran derivatives and 4-glycosyloxybenzopyran derivatives (test compounds) suspended in 0.5% sodium carboxymethylcellulose (CMCNa) were given orally at a dose of 100 mg/kg to the animals. 1 hour after administration of Test compounds, the animals were induced anaphylaxis by injection of saline (1 ml) dissolving 5 mg of Evans Blue and 1 mg of TNP-As into the tail vein of the animals. 30 minutes after induction of anaphylaxis, animals were anesthetized by ether and killed by bleeding, and were flayed dorsal skin. The leakage of dye was assessed by measuring the diameter (mean of shortest and longest diameter) of the blue spot on the inside surface of dorsal skin. As vehicle control group, only 0.5% CMCNa solution was administered orally, and as positive control group, Tranilast suspended in 0.5% CMCNa were administered orally at a dose of 100 mg/kg to the animals with the same method as the test compounds groups. Each experimental group consisted of 5 rats. [formula] In equation 1: A: leakage of dye in vehicle control group
B: leakage of dye in test compound group or in positive control group
The anti-allergic activity of the compounds of the present invention were compared with that of analogous compounds which were published in the Patent (EP-A-0598117) by PCA reaction. This pharmacological test was performed according to the method described in Test Example 1.

[3] = tested on: contact dermatitis induced by picryl chloride; assay: Effect on contact dermatitis induced by picryl chloride in mice (delayed type hypersensitization); assay type: in vivo; conditions: Mus musculus; 100 mg/kg oral, ear thickness 24 hours after challenge; Table 6; read-out: Inhibition (%) against the increase of ear thickness
Method: The delayed type hypersensitization is inhibited by steroid, but can not be effected by known anti-allergic agents. In the following, the method of the pharmacological test will be explained.
Method: Mice, shaved their abdominal skin on previous day, were immunized by applying 0.1 ml of acetone containing 7 mg of picryl chloride to the skin of the abdomen. 7 days after immunization, the thickness of the ear was measured with a dial thickness gauge, then mice were challenged by painting 5 μl of 1% picryl chloride olive oil solution to each side skin of left ear. 24 hours after challenge, the thickness of the left ear was measured again and the increase (%) of thickness was calculated according to equation 2. The compounds of the present invention (test compounds) suspended in 0.5% CMCNa were forcibly administered orally at a dose of 100 mg/kg at 1 hour before and 16 hours after challenge. As vehicle control group, only 0.5% CMCNa solution were administered orally, and as positive control group, Prednisolone, steroid hormone, and Tranilast were administered orally at the doses of 10 mg/kg and 100 mg/kg, respectively.
Increase (%)=(A-B)/B×100 (Equation 2)
A: thickness of the ear at 24 hours after challenge
B: thickness of the ear before challenge
Inhibition(%)=(C-D)/C×100 (equation 3)
C: The increase (%) in vehicle control group
D: The increase (%) in test compounds group or positive control group

CCCCCCCCCCCCOc1ccc2c(O[C@@H]3O[C@H](CO)[C@@H](O)[C@H](O)[C@H]3O)c(O)c(=O)oc2c1 [compound 68]
inhibition in vivo at 100 mg/kg [1]: 65.3%
inhibition in vivo at 100 mg/kg [2]: 59.9%
inhibition in vivo at 100 mg/kg [3]: 56.6%

CCCCCCCCOc1ccc2c(O)c(O[C@@H]3O[C@H](CO)[C@H](O)[C@H](O)[C@H]3O)c(=O)oc2c1 [compound 34]
inhibition in vivo at 100 mg/kg [1]: 78.3%
inhibition in vivo at 100 mg/kg [2]: 64.3%
inhibition in vivo at 100 mg/kg [3]: 64.2%

COc1ccc2c(O)c(O[C@@H]3O[C@H](CO)[C@H](O)[C@H](O)[C@H]3O)c(=O)oc2c1 [compound 11, 7-methoxy-4-hydroxy-3-(β-D-galactopyranosyloxy)-2H-1-benzopyran-2-one]
inhibition in vivo at 100 mg/kg [1]: 63.3%
inhibition in vivo at 100 mg/kg [2]: 52.1%
inhibition in vivo at 100 mg/kg [3]: 53.3%

CC(C)=CCC/C(C)=C/COc1ccc2c(O)c(O[C@@H]3O[C@H](CO)[C@@H](O)[C@H](O)[C@H]3O)c(=O)oc2c1 [compound 20]
inhibition in vivo at 100 mg/kg [1]: 72.4%
inhibition in vivo at 100 mg/kg [2]: 57.2%
inhibition in vivo at 100 mg/kg [3]: 56.2%

CC(=O)Oc1ccc2c(O[C@@H]3O[C@H](CO)[C@@H](O)[C@H](O)[C@H]3O)c(O)c(=O)oc2c1 [compound 116]
inhibition in vivo at 100 mg/kg [1]: 55.3%
inhibition in vivo at 100 mg/kg [2]: 48%
inhibition in vivo at 100 mg/kg [3]: 45.1%

CCCCCCCCCCOc1ccc2c(O[C@@H]3O[C@H](CO)[C@@H](O)[C@H](O)[C@H]3O)c(O)c(=O)oc2c1 [compound 67]
inhibition in vivo at 100 mg/kg [1]: 70.6%
inhibition in vivo at 100 mg/kg [2]: 60.4%
inhibition in vivo at 100 mg/kg [3]: 63.8%

COc1ccc2c(O)c(O[C@@H]3O[C@H](COC(C)=O)[C@@H](OC(C)=O)[C@H](OC(C)=O)[C@H]3OC(C)=O)c(=O)oc2c1 [compound 4, 7-methoxy-4-hydroxy-3-(tetra-O-acety-β-D-glucopyranosyloxy)-2H-1-benzopyran-2-one]
inhibition in vivo at 100 mg/kg [1]: 48.3%
inhibition in vivo at 100 mg/kg [2]: 40.2%
inhibition in vivo at 100 mg/kg [3]: 46.3%

CCCCCCOc1ccc2c(O)c(O[C@@H]3O[C@H](CO)[C@@H](O)[C@H](O)[C@H]3O)c(=O)oc2c1 [compound 43]
inhibition in vivo at 100 mg/kg [1]: 76.3%
inhibition in vivo at 100 mg/kg [2]: 63.2%
inhibition in vivo at 100 mg/kg [3]: 63.4%

O=c1oc2cc(O)ccc2c(O)c1O[C@@H]1O[C@H](CO)[C@H](O)[C@H](O)[C@H]1O [compound 32]
inhibition in vivo at 100 mg/kg [1]: 54.8%
inhibition in vivo at 100 mg/kg [2]: 43.2%
inhibition in vivo at 100 mg/kg [3]: 48.1%

CCCCCCCCCCCCOc1ccc2c(O)c(O[C@H]3O[C@H](CO)[C@@H](O)[C@H](O)[C@@H]3O)c(=O)oc2c1 [compound 26]
inhibition in vivo at 100 mg/kg [1]: 66.3%
inhibition in vivo at 100 mg/kg [2]: 53.3%
inhibition in vivo at 100 mg/kg [3]: 55.9%

O=c1oc2cc(OCc3ccccc3)ccc2c(O[C@H]2O[C@H](CO)[C@@H](O)[C@H](O)[C@@H]2O)c1O [compound 90]
inhibition in vivo at 100 mg/kg [1]: 40.5%
inhibition in vivo at 100 mg/kg [2]: 45.3%
inhibition in vivo at 100 mg/kg [3]: 38.4%

O=c1oc2cc(OCc3ccccc3)ccc2c(O[C@@H]2O[C@H](CO)[C@@H](O)[C@H](O)[C@H]2O)c1O [compound 76]
inhibition in vivo at 100 mg/kg [1]: 47.5%
inhibition in vivo at 100 mg/kg [2]: 47.7%
inhibition in vivo at 100 mg/kg [3]: 46.8%

CCC=CCCOc1ccc2c(O[C@@H]3O[C@H](CO)[C@@H](O)[C@H](O)[C@H]3O)c(O)c(=O)oc2c1 [compound 70]
inhibition in vivo at 100 mg/kg [1]: 67.7%
inhibition in vivo at 100 mg/kg [2]: 58.5%
inhibition in vivo at 100 mg/kg [3]: 57.6%
